The text below walks through data of ChEMBL document CHEMBL1201862, “PubChem BioAssay data set” (2004).

Some test systems named below: T47D; OVCAR-3; SF-268; EKVX; UACC-62; COLO 205; MDA-N; LOX IMVI; UACC-257; KM12; NCI-H460; HL-60; SNB-75; CCRF-CEM; RXF 393; SF-539; 786-0; HOP-62; HOP-92; KM-20L2.
Assay in all cases: DTP human tumour cell line panel, 48 h

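Where inhibition never reached the appropriate level, the endpoint shown equals the highest concentration tested. Otherwise, values were interpolated linearly from a five-concentration, 48-hour dose response in 96-well plates. GI50 marks 50% less growth.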 Active and inactive are the calls of the source. Rule as the data show it: active = GI50 up to about 1.1 µM and inactive = higher.

For the molecule `Cc1cc(Cl)ccc1OCC(=O)Nc1nc(N)nc(N)n1`, the GI50 with T47D, in the assay with OVCAR-3, with SF-268, in the assay with EKVX, with UACC-62 and in the assay on COLO 205 was > 100 µM (inactive) throughout. Also, the GI50 with MDA-N, in the assay with LOX IMVI, in the assay on UACC-257, in the assay with KM12, in the assay on NCI-H460 and with HL-60 was > 100 µM (inactive) in each case. In addition, the GI50 in the assay on SNB-75, with CCRF-CEM, in the assay with RXF 393, in the assay on SF-539, in the assay on 786-0 and in the assay with HOP-62 was > 100 µM (inactive) each time. For the same molecule, the GI50 in the assay on HOP-92 was > 100 µM (inactive).

As for `Oc1cccc2c1NC1=C(CCC/C1=C\c1ccccc1)C2`, the GI50 was > 100 µM (inactive) in the assay on OVCAR-3; > 100 µM (inactive) in the assay with SF-268; > 100 µM (inactive) in the assay on EKVX; > 100 µM (inactive) in the assay on COLO 205; 73.3 µM (inactive) with LOX IMVI; 57.9 µM (inactive) in the assay with UACC-257. The GI50 in the assay with KM12 was > 100 µM (inactive); in the assay with NCI-H460, 57.1 µM (inactive); in the assay with HL-60, 40.1 µM (inactive); with CCRF-CEM it was 37.3 µM (inactive); in the assay with KM-20L2, 52.6 µM (inactive); in the assay with SF-539 it was 20.6 µM (inactive). The GI50 with 786-0 and in the assay with HOP-62 was > 100 µM (inactive) throughout.

Regarding `COc1ccc(/C=C/C(C(=O)O)C(=O)O)cc1`, the GI50 was 47.9 µM (inactive) with OVCAR-3; 67.5 µM (inactive) in the assay on SF-268; 78.9 µM (inactive) in the assay on EKVX; 49.2 µM (inactive) with UACC-62; > 100 µM (inactive) with COLO 205; 16.1 µM (inactive) in the assay on LOX IMVI. The GI50 was 97.9 µM (inactive) in the assay on UACC-257; 50.7 µM (inactive) in the assay with KM12; > 100 µM (inactive) with NCI-H460; 24.3 µM (inactive) with HL-60; 26.2 µM (inactive) in the assay on CCRF-CEM; 91.6 µM (inactive) in the assay with KM-20L2. The GI50 in the assay with SF-539 is > 100 µM (inactive); in the assay with 786-0, > 100 µM (inactive); in the assay on HOP-62 it was > 100 µM (inactive); in the assay on HOP-92 it was 72.1 µM (inactive).

`COc1ccc(C(C)NNC(=O)c2ccncc2)cc1OC` (stereo not given): the GI50 in the assay on T47D, in the assay on OVCAR-3, in the assay on SF-268, in the assay with EKVX, with UACC-62 and in the assay on COLO 205 was > 100 µM (inactive) each time. Besides, the GI50 in the assay on MDA-N, with LOX IMVI, with UACC-257, in the assay with KM12, in the assay with NCI-H460 and in the assay on HL-60 was > 100 µM (inactive) in each case. Moreover, the GI50 in the assay with SNB-75, in the assay on CCRF-CEM, with RXF 393, in the assay on SF-539, in the assay on 786-0 and with HOP-62 was > 100 µM (inactive) in each case. The GI50 with HOP-92 is > 100 µM (inactive).

Regarding `Cc1c(C(=O)C/C(=N/NC(=O)C[n+]2ccccc2)C(=O)Nc2ccccc2)[n+]([O-])c2ccccc2[n+]1[O-]`, the GI50 in the assay on OVCAR-3, in the assay on SF-268, in the assay with EKVX, in the assay on UACC-62, in the assay on COLO 205 and with LOX IMVI was > 100 µM (inactive) throughout. The GI50 in the assay on UACC-257, in the assay with KM12, with NCI-H460, with HL-60, in the assay with SNB-75 and with CCRF-CEM was > 100 µM (inactive) throughout. In addition, the GI50 in the assay on KM-20L2, in the assay on RXF 393, in the assay with SF-539, in the assay with 786-0 and with HOP-62 was > 100 µM (inactive) in each case.

For `CCCN1CC=C(c2cc(C(=O)OCC)[nH]c2-c2cc(C)no2)C1=O`, the GI50 with T47D, in the assay with OVCAR-3, in the assay with SF-268, in the assay on EKVX, in the assay on UACC-62 and in the assay with COLO 205 was > 100 µM (inactive) in each case. Besides, the GI50 in the assay on MDA-N, with LOX IMVI, in the assay on UACC-257, with KM12, in the assay on NCI-H460 and with HL-60 was > 100 µM (inactive) each time. Moreover, the GI50 in the assay with SNB-75 is 30.8 µM (inactive); in the assay with CCRF-CEM, 89.3 µM (inactive); in the assay with RXF 393, > 100 µM (inactive); with SF-539, > 100 µM (inactive); with 786-0 it was > 100 µM (inactive); in the assay with HOP-62 it was > 100 µM (inactive). Besides, in the assay on HOP-92, the GI50 is > 100 µM (inactive).

With `Cc1ccc(S(=O)(=O)OC(C=O)C(O)C(O)COC(c2ccccc2)(c2ccccc2)c2ccccc2)cc1` (stereo not given), the GI50 with OVCAR-3 is 14.9 µM (inactive); in the assay on SF-268 it was 19.6 µM (inactive); in the assay on EKVX it was 13.9 µM (inactive); with UACC-62, 15.2 µM (inactive); with LOX IMVI, 19.1 µM (inactive); in the assay with UACC-257 it was 13.2 µM (inactive). Further, the GI50 is 11.9 µM (inactive) in the assay with KM12; 14 µM (inactive) with NCI-H460; 14.9 µM (inactive) in the assay with SNB-75; 14.1 µM (inactive) in the assay on KM-20L2; 15.2 µM (inactive) in the assay on RXF 393; 16.3 µM (inactive) in the assay on SF-539. The GI50 in the assay with 786-0 is 14.1 µM (inactive); in the assay on HOP-62, 16.9 µM (inactive).

Regarding `C=CCn1c(-c2ccc(-c3cs/c(=N\N=O)n3CC=C)cc2)cs/c1=N\N=O`, the GI50 in the assay on T47D, with OVCAR-3, in the assay on SF-268, in the assay on EKVX, in the assay with UACC-62 and in the assay on COLO 205 was > 100 µM (inactive) throughout. Also, the GI50 in the assay on MDA-N, in the assay with LOX IMVI, in the assay with UACC-257, with KM12, in the assay on NCI-H460 and in the assay with HL-60 was > 100 µM (inactive) each time. Besides, the GI50 with SNB-75 is 20.9 µM (inactive); with CCRF-CEM it was > 100 µM (inactive); in the assay with RXF 393, 19.1 µM (inactive); with SF-539, 94.4 µM (inactive); with 786-0, 62.5 µM (inactive); with HOP-62, 64.3 µM (inactive). In addition, the GI50 in the assay with HOP-92 is > 100 µM (inactive).

In the case of `NC(CCSCCF)C(=O)O` (stereo not given), the GI50 in the assay with OVCAR-3, with SF-268, in the assay on EKVX, with UACC-62, with COLO 205 and in the assay with LOX IMVI was > 100 µM (inactive) throughout. For the same molecule, the GI50 in the assay on KM12, with NCI-H460, in the assay with HL-60, in the assay with CCRF-CEM, in the assay on KM-20L2 and in the assay with SF-539 was > 100 µM (inactive) in each case. In addition, the GI50 with 786-0, in the assay on HOP-62 and in the assay on HOP-92 was > 100 µM (inactive) each time.

As to `O=[N+]([O-])c1ccc2c(c1)Nc1c3ccccc3nc3cccc-2c13`, the GI50 in the assay with T47D was 3.95 µM (inactive); with OVCAR-3, 0.689 µM (active); with SF-268 it was 8.61 µM (inactive); in the assay with EKVX it was 11.6 µM (inactive); in the assay on UACC-62, 4.16 µM (inactive); in the assay with COLO 205, 2.68 µM (inactive). The GI50 was 3.62 µM (inactive) in the assay on MDA-N; 1.93 µM (inactive) in the assay on LOX IMVI; 16.9 µM (inactive) with UACC-257; 3.57 µM (inactive) in the assay with KM12; 0.789 µM (active) in the assay on NCI-H460; 1.32 µM (inactive) in the assay with HL-60. For the same molecule, the GI50 is 3.61 µM (inactive) in the assay with SNB-75; 1.84 µM (inactive) with CCRF-CEM; 8.39 µM (inactive) in the assay on RXF 393; 12.1 µM (inactive) in the assay on SF-539; 1.02 µM (active) in the assay with 786-0; 2.07 µM (inactive) with HOP-62. The GI50 in the assay on HOP-92 is 4.73 µM (inactive).

Regarding `C=CC(C1=CC(=O)C(OC)=CC1=O)c1ccccc1` (stereo not given) [4-METHOXYDALBERGIONE], the GI50 with T47D was 2.65 µM (inactive); with OVCAR-3 it was 17.2 µM (inactive); with SF-268 it was 16.3 µM (inactive); in the assay with EKVX, 16.1 µM (inactive); in the assay with UACC-62 it was 14.6 µM (inactive); in the assay on COLO 205, 18.9 µM (inactive). The GI50 in the assay with MDA-N is 13.8 µM (inactive); in the assay on LOX IMVI, 16.2 µM (inactive); with UACC-257, 19.2 µM (inactive); in the assay on KM12 it was 15.7 µM (inactive); in the assay with NCI-H460 it was 17.1 µM (inactive); in the assay with HL-60, 2.38 µM (inactive). The GI50 was 18.1 µM (inactive) in the assay with SNB-75; 1.91 µM (inactive) with CCRF-CEM; 15.6 µM (inactive) with RXF 393; 14.2 µM (inactive) in the assay on SF-539; 14.1 µM (inactive) in the assay on 786-0; 16.6 µM (inactive) with HOP-62. In addition, the GI50 in the assay with HOP-92 is 4.98 µM (inactive).
